According to ChEMBL document CHEMBL2073748, “Na(+)-dependent carnitine transport by organic cation transporter (OCTN2): its pharmacological and toxicological relevance” (J Pharmacol Exp Ther, 1999):

What was measured:
Format in all cases: functional, cell-based
[1] = molecular target: T1, Organic cation/carnitine transporter 2 (Homo sapiens, UniProt O76082); experiment: TP_TRANSPORTER: inhibition of Carnitine uptake (Carnitine: 0.010? uM, alphaKG: 500 uM) in OCTN2-expressing HEK293 cells; details: hek293, 500 µM
T1 sequence (O76082 whole entry): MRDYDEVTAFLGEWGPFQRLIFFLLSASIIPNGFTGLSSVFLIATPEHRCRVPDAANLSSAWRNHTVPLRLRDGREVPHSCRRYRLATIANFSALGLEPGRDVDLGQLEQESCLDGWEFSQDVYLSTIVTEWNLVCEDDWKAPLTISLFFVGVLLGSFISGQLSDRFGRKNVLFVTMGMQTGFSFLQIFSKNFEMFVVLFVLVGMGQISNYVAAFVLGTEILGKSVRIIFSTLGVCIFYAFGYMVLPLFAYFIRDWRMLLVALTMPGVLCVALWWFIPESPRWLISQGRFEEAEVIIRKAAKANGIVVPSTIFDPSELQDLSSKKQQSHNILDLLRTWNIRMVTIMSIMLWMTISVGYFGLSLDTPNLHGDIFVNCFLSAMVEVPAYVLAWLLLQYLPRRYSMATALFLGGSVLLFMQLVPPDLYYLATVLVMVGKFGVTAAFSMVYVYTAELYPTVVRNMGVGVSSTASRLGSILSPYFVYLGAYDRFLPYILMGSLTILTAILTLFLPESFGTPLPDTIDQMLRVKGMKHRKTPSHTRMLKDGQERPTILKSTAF

[2] = molecular target: T1, Organic cation/carnitine transporter 2; experiment: TP_TRANSPORTER: uptake in OCTN2-expressing HEK293 cells
[3] = molecular target: T1, Organic cation/carnitine transporter 2; experiment: TP_TRANSPORTER: inhibition of Carnitine uptake (Carnitine: 0.010? uM, PAH: 500 uM) in OCTN2-expressing HEK293 cells; details: hek293, 500 µM
[4] = molecular target: T1, Organic cation/carnitine transporter 2; experiment: TP_TRANSPORTER: inhibition of Carnitine uptake (Carnitine: 0.010? uM, NMN: 500 uM) in OCTN2-expressing HEK293 cells; details: hek293, 500 µM
[5] = molecular target: T1, Organic cation/carnitine transporter 2; experiment: TP_TRANSPORTER: inhibition of Carnitine uptake (Carnitine: 0.010? uM, Norfloxacin: 500 uM) in OCTN2-expressing HEK293 cells; details: hek293, 500 µM
[6] = molecular target: T1, Organic cation/carnitine transporter 2; experiment: TP_TRANSPORTER: inhibition of Carnitine uptake (Carnitine: 0.010? uM, Pivalate: 500 uM) in OCTN2-expressing HEK293 cells; details: hek293, 500 µM
[7] = molecular target: T1, Organic cation/carnitine transporter 2; experiment: TP_TRANSPORTER: inhibition of Carnitine uptake (Carnitine: 0.010? uM, SPLX: 500 uM) in OCTN2-expressing HEK293 cells; details: hek293, 500 µM

## O=C(O)CCC(=O)C(=O)O [ALPHA-KETOGLUTARIC ACID]
[1]
  Activity: is not an inhibitor [-]

## Nc1ccc(C(=O)NCC(=O)O)cc1 [AMINOHIPPURIC ACID]
[2]
  Activity: is not a substrate [-]
[3]
  Activity: is not an inhibitor [-]

## CNC(=O)c1cccnc1 [NICOTINYL METHYLAMIDE]
[4]
  Activity: is not an inhibitor [-]

## CCn1cc(C(=O)O)c(=O)c2cc(F)c(N3CCNCC3)cc21 [NORFLOXACIN]
[5]
  Activity: is not an inhibitor [-]

## CC(C)(C)C(=O)O [PIVALATE]
[6]
  Activity: is not an inhibitor [-]

## C[C@@H]1CN(c2c(F)c(N)c3c(=O)c(C(=O)O)cn(C4CC4)c3c2F)C[C@H](C)N1 [SPARFLOXACIN]
[7]
  Activity: is not an inhibitor [-]
